In data set [1] the test system is radiocontrast media induced nephropathy. The note with it: Shammas, 2001, Welch, 2002, Huber; cited from earlier work.
Another data set is described as follows: Permeability (Table 1). The class given is in vitro ADME.
A further data set deals with PGP (Homo sapiens, UniProt P08183). Description: PGP-factor (Table 1). The class given is in vitro ADME.
In data set [2] the test system is renal hemodynamics and oxygenation. Description: renal blood flow and oxygenation following radiocontrast media (iodixanol) in anesthetized rats. In kind it is in vivo, Wistar rats. The protocol: The experimental protocol was based on a previously published methodology. The experiments were performed using adult male 3-4 months old Wistar rats. Body weight ranged from 250 to 400 g. The rats received a standard chow diet. Feeding and drinking was discontinued approx. 12 hours before the surgery. The animals were anesthetized by intraperitoneal injection of urethane solution ([…]; 6 ml per kg), and placed on a heated table to maintain body temperature at 37° C. throughout surgery and subsequent experiments. After an incision in the left groin the femoral artery was carefully prepared and cannulated to measure the mean arterial blood pressure. Another catheter was placed into the carotid artery for administration of contrast medium. Finally, an inflatable cuff was placed around the abdominal aorta above the origin of the renal arteries. A servo controlled inflation of the cuff allowed for the reduction and maintenance of the renal perfusion pressure at a preset levels. Two 500 μm diameter optical fibers were implanted into the cortex and the outer medulla of left kidney to determine local laser-Doppler fluxes and an ultrasound transit time flowprobe was placed around the renal artery of the same kidney to determine total kidney blood flow (RBF). Renal oxygen levels (oxygen partial pressure=pO2) was likewise determined locally (cortical and medullary pO2, respectively; OxyLite, Oxford Optronics). After implantation and stabilization, the experiment was started by measuring hemodynamic and oxygenation parameters under baseline conditions. Vehicle or substance 1 (5 mg/kg as an intravenous bolus) were then administered. New measurements were performed, and 30 min after vehicle or substance 1 administration, lodixanol (Visipaque 320; 1.5 mL i.a.; Amersham Buchier, Braunschweig, Germany), or vehicle was applied. The experimental groups were thus: 1. Vehicle+Vehicle (‘control’), Vehicle+Visipaque, and sunstance 1+Visipaque.

Data set [3] is described as follows: steady-state plasma levels in anesthetized L-NAME pretreated rats. In kind it is in vivo, Sprague-Dawley rats. The note with it: rat. The protocol: The radiocontrast media-dependent acute kidney failure was induced using an experimental protocol based on that published by the group of Osswald,^22 Male Sprague-Dawley rats of approximately 300 g body weight were acclimatized for at least 1 week before the start of the chronic pretreatment with the nitric oxide synthase inhibitor N-nitro-L-arginine methyl ester (L-NAME for 7-9 weeks at a daily dose of 5 mg/kg). For the experiments, the overnight fasted rats (which had continued free access to drinking water) were anesthetized with Inactin (80 mg/kg, given i.p. as a bolus). Catheters were placed (i) in the trachea, (ii) in one jugular vein (for radiocontrast medium administration, and background saline infusion; see below), (iii) in the other jugular vein for vehicle or sunstance 1 administration, (iv) in the carotid artery for blood sampling, and part of the background saline infusion; see below), and (v) in the bladder for urine collection. The rats were kept on a heated table to maintain their body temperature at 37° C. […] The measured values of urine volume, and urine levels of Na^+ were used to calculate the rates of diuresis and natriuresis over the time intervals mentioned above.

In another data set the target is T1, adenosine A1 receptor (Homo sapiens, UniProt P30542).
T1 sequence (P30542 1-326): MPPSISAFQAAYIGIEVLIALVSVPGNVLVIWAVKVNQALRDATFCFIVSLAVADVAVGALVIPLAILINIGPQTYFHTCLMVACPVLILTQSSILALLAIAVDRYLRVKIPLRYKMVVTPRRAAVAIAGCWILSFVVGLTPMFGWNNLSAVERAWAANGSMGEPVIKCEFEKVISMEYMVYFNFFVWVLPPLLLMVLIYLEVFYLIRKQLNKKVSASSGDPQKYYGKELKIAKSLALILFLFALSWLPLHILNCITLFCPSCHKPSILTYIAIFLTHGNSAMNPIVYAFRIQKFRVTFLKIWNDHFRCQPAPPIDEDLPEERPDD
Description: receptor binding and enzyme profiling in a wide range of assays. The source says:
(§1) The phosphodiesterase PDE4 inhibiting activity may be used for titration purposes of patients. The phosphodiesterase PDE4 inhibiting activity of the compounds described herein prevents overdosage of the selective A1 antagonist by alarming the patients with self-evident, non-serious signals like e.g. headache before serious events like e.g. CNS convulsion can occur.

The test system of data set [4] is radiocontrast media-dependent acute kidney failure. Description: diuresis and natriuresis following radiocontrast media (diatrizoate) in anesthetized rats. In kind it is in vivo, Sprague-Dawley rats. The note with it: for diuresis / sodium excretion: mean ± SEM. The protocol:
The radiocontrast media-dependent acute kidney failure was induced using an experimental protocol based on that published by the group of Osswald,^22 Male Sprague-Dawley rats of approximately 300 g body weight were acclimatized for at least 1 week before the start of the chronic pretreatment with the nitric oxide synthase inhibitor N-nitro-L-arginine methyl ester (L-NAME for 7-9 weeks at a daily dose of 5 mg/kg). For the experiments, the overnight fasted rats (which had continued free access to drinking water) were anesthetized with Inactin (80 mg/kg, given i.p. as a bolus). Catheters were placed (i) in the trachea, (ii) in one jugular vein (for radiocontrast medium administration, and background saline infusion; see below), (iii) in the other jugular vein for vehicle or sunstance 1 administration, (iv) in the carotid artery for blood sampling, and part of the background saline infusion; see below), and (v) in the bladder for urine collection. The rats were kept on a heated table to maintain their body temperature at 37° C. After collecting urine samples for 60-90 min for baseline measurements, the animals received vehicle or substance 1 as follows: a loading bolus of 0.15, or 1.5 mg substance 1 per kg, or vehicle, in a volume of 1 mukg, was applied intravenously, followed by a continuous intravenous infusion at a rate of […] substance 1 per kg per min, or vehicle, in a volume of 11 μL/kg·min until the end of the experiment. With these dose regimens steady-state plasma levels of substance 1 were 59±23, and 314±36 ng/mL, respectively. Ten minutes after the start of the substance 1 (or vehicle) treatment, diatrizoate (meglumine salt, Urolux, 0.61 g diatrizoate/mL, corresponding to a total iodine content of 290 mg/mL, Sanochemia Diagnostics, Neuss, Germany), prewarmed at body temperature, was infused iv over 3 min at a dose of 2.55 mL/kg, corresponding to 740 mg iodine/kg (the timepoint of contrast medium administration was defined as t0). A background saline solution was infused from the beginning and maintained at a rate of ˜1.2 mL/h per 100 g until the end of the experiments (0.24 mL/h via the arterial catheter, and 0.96 mL/h via the venous line). This infusion was required to compensate for the volume loss due to the operation, and the subsequent blood sampling, but also to insure the patency of the arterial catheter between the blood sampling timepoints. Urine samples were collected according to the following schedule: baseline (60-90 min preceding the start of substance 1, or vehicle, administration), t0-30 min (0.5 h timepoint), 30-60 min (1 h timepoint), 60-120 min (2 h timepoint), and 120-180 min (3 h timepoint). Plasma samples were taken at the end of each of the above periods. The measured values of urine volume, and urine levels of Na^+ were used to calculate the rates of diuresis and natriuresis over the time intervals mentioned above.

For another data set, the target named is phosphodiesterase PDE4. In words: phosphodiesterase PDE4 inhibition (enzyme profiling). The following applies: read-out: calculated pKi of the PDE4 inhibition (converted). In kind it is biochemical.
Text: as §1

Data set [5] relates to phosphodiesterases (PDE 1, 2, 3, 5 and 6). In words: inhibition of other phosphodiesterases (enzyme profiling). In kind it is biochemical. The note with it: relative to PDE4 inhibition.
Text: as §1

Setting [6] is: Low dose, 0.5 h after CM (diatrizoate).
The mark [7] stands for this setting: Low dose, 1 h after CM (diatrizoate).
[8] abbreviates: Low dose, 2 h after CM (diatrizoate).
Setting [9] is: Low dose, 3 h after CM (diatrizoate).
[10] abbreviates: high dose, 0.5 h after CM (diatrizoate).
The mark [11] stands for this setting: high dose, 1 h after CM (diatrizoate).
[12] abbreviates: high dose, 2 h after CM (diatrizoate).
Where [13] appears, read: high dose, 3 h after CM (diatrizoate).

The source of these data is patent US20080027082A1, “USE OF ADENOSINE A1 ANTAGONISTS IN RADIOCONTRAST MEDIA INDUCED NEPHROPATHY” (priority 2006, published 2008).

Chain of PGP (P08183 whole entry): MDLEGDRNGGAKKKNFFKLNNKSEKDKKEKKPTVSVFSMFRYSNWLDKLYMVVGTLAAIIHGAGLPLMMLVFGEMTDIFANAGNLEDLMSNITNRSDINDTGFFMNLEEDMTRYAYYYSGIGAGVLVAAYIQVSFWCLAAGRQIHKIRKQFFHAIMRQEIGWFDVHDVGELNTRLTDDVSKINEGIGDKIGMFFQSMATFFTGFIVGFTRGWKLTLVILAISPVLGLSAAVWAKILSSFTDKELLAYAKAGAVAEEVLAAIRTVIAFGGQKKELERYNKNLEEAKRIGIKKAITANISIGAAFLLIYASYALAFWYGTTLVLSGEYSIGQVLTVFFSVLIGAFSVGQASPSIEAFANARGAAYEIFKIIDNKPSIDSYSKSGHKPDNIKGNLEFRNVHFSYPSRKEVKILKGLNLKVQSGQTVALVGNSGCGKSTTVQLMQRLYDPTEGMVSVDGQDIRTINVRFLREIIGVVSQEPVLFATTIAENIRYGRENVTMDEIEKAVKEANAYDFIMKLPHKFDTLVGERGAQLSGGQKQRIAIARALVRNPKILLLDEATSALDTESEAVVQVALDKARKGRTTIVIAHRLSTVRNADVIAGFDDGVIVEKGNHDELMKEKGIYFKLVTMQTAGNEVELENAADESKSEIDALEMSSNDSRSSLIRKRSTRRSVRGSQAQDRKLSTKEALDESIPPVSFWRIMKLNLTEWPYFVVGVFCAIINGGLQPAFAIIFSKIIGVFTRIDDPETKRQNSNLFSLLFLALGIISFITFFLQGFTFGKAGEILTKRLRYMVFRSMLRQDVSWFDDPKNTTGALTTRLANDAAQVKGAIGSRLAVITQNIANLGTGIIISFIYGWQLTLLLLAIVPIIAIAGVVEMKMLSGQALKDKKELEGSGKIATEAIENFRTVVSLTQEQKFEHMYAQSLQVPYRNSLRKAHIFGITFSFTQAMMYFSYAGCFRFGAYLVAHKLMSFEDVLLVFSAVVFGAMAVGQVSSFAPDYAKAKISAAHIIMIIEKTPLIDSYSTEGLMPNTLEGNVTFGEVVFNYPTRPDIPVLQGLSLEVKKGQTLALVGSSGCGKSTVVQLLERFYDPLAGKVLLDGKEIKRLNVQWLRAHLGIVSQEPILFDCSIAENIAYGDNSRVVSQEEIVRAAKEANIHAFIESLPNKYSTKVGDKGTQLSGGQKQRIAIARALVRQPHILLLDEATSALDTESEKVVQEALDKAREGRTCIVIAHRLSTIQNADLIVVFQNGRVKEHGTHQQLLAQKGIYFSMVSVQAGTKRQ

As to `Cn1c(=O)c2[nH]cnc2n(C)c1=O` [Aminophylline], the “protection against radiocontrast media induced nephropathy” value in data set [1] is “does not appear to add a protective role”.
On to `CCCn1c(=O)c2[nH]c(C34CC5CC(CC3C5)C4)nc2n(CCC)c1=O` [KW3902, reference compound], for which the “Permeability (%)” value in the data set “Permeability (Table 1)” amounted to 31.1%. For the same compound, at PGP, the PGP-factor came out at 1.4.
As for `CS(=O)(=O)O.OC1CCC(Nc2nc(-c3ccccc3)nc3[nH]ccc23)CC1` (stereo not drawn) [substance 1, 4-[(2-phenyl-7H-pyrrolo[2,3-o]pyrimidin-4-yl)amino]-trans-cyclohexanol methanesulfonate], the “renal cortical vascular conductance” value in data set [2] (substance 1 5 mg/kg iv + Visipaque (FIG. 4)) is “maintained this parameter at levels seen in the vehicle control group”. Also, in data set [2] (substance 1 5 mg/kg iv + Visipaque, until the end of the experiment (FIG. 5)), the “cortical pO2” value is reported as “significant increase”. Also, the “renal cortical blood flow” value in [2] (substance 1 5 mg/kg iv + Visipaque, vs. Vehicle+Visipaque, 20 min measurement (FIG. 3)) was “sustained and significant increase”. In addition, in data set [2] (substance 1 5 mg/kg iv + Visipaque, not shown), the “effect on Visipaque-induced changes of medullary blood flow and medullary vascular conductance” value was “only partially (but significantly) prevented these effects”. For the same compound, the “effect on the Visipaque-induced increase in mean arterial blood pressure” value in data set [2] (substance 1 5 mg/kg iv bolus 30 min before Visipaque 1.5 mL i.a., not shown) is given as “partially prevented”. In addition, in data set [2] (substance 1 5 mg/kg iv bolus, not shown), the “hemodynamic parameters (arterial blood pressure, RBF) before the Visipaque challenge” value is on record as “did not modify”. Moreover, the steady-state plasma level in data set [3] (iv loading bolus 0.15 mg/kg, then infusion 1.5 pg per kg per min (so in the source)) worked out at 59 ± 23 ng/mL; in [3] (iv loading bolus 1.5 mg/kg, then infusion 15 pg per kg per min (so in the source)) it was 314 ± 36 ng/mL. The “conclusion from receptor binding and enzyme profiling” value at adenosine A1 receptor is “selective adenosine A1 receptor ligand with some phosphodiesterase PDE4 inhibiting activity”. The diuresis is recorded as 27.31 ± 2.36 mL per kg body weight per h in data set [4] (setting [6]); 3.87 ± 0.40 mL per kg body weight per h in data set [4] (setting [7]); 3.34 ± 0.42 mL per kg body weight per h in data set [4] (setting [8]); 3.54 ± 0.50 mL per kg body weight per h in data set [4] (setting [9]); 28.01 ± 2.02 mL per kg body weight per h in data set [4] (setting [10]); 4.97 ± 0.30 mL per kg body weight per h in data set [4] (setting [11]). Also, the diuresis in [4] (setting [12]) is given as 3.13 ± 0.27 mL per kg body weight per h; in data set [4] (setting [13]), 3.11 ± 0.36 mL per kg body weight per h. For the same compound, the sodium excretion in data set [4] (setting [6]) is 3039 ± 354 μmol per kg body weight per h; in data set [4] (setting [7]), 338 ± 81 μmol per kg body weight per h; in data set [4] (setting [8]), 613 ± 121 μmol per kg body weight per h; in [4] (setting [9]), 842 ± 121 μmol per kg body weight per h; in data set [4] (setting [10]) it was 3301 ± 306 μmol per kg body weight per h; in [4] (setting [11]) it was 520 ± 77 μmol per kg body weight per h. Further, the values for the sodium excretion in [4] (setting [12]) and in data set [4] (setting [13]) were 591 ± 88 μmol per kg body weight per h and 830 ± 91 μmol per kg body weight per h, respectively. In addition, in data set [4] (after contrast medium (diatrizoate) administration), the “persistence of the stimulating effect on diuresis” value is “at least 3 h”. In addition, the potassium excretion entry in data set [4] (after diatrizoate, throughout the experiment, not shown) was “not relevantly affected”. In data set [4] (after diatrizoate, not shown), the chloride excretion result is reported as “stimulated”. In addition, the “Permeability (%)” value in “Permeability (Table 1)” turned out to be 37.4%. Further, the Ki on phosphodiesterase PDE4 is 750 nM. Also, in [5], the “activities on other phosphodiesterases (PDE 1, 2, 3, 5 and 6), fold lower than on PDE4” value was “at least 25 fold”. The compound further returned a PGP-factor on PGP of 1.5.
In the case of `CS(=O)(=O)O.NC(=O)[C@@H]1C[C@H](O)CN1c1nc(-c2ccccc2)nc2[nH]ccc12` [substance 2, (4S)-4-hydroxy-1-(2-phenyl-7H-pyrrolo[2,3-a]pyrimidin-4-yl)-L-prolinamide methanesulfonate], the “Permeability (%)” value in the data set “Permeability (Table 1)” was 27.0%. At PGP, the PGP-factor was found to be 10.1.
Consider `Cn1c(=O)c2[nH]cnc2n(C)c1=O` [theophylline], for which the “protection against radiocontrast media induced nephropathy” value in data set [1] is listed as “effective”.
